# Laboratory results as given in US20220402950A1, “SUBSTITUTED BENZIMIDAZOLES AS PAD4 INHIBITORS” (BRISTOL-MYERS SQUIBB COMPANY, priority 2018, published 2022).
# Target: human PAD4 (hPAD4) (Homo sapiens, UniProt Q9UM07)
# Assay: RFMS Human PAD4 Functional Assay
# Format: biochemical
# Settings: hPAD4 RFMS IC50, human PAD4, rapid-fire mass spectrum (RFMS) assay; 5 nM hPAD4, 250 μM BAEE
# Method in brief: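 RapidFire ESI-MS quantification, normalised to a modified-citrulline internal standard, after phenyl glyoxal (final 4 mM) derivatisation of the TCA-quenched reaction. The enzyme (10 nM) sat 30 min with compound (up to 50 μM final) before 500 μM BAEE (as added) started a 90 min, 37 °C reaction. Buffer: HEPES pH 7.5, 50 μM calcium, 5 μM TPEN.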
# human PAD4 (hPAD4), sequence (Q9UM07 whole entry): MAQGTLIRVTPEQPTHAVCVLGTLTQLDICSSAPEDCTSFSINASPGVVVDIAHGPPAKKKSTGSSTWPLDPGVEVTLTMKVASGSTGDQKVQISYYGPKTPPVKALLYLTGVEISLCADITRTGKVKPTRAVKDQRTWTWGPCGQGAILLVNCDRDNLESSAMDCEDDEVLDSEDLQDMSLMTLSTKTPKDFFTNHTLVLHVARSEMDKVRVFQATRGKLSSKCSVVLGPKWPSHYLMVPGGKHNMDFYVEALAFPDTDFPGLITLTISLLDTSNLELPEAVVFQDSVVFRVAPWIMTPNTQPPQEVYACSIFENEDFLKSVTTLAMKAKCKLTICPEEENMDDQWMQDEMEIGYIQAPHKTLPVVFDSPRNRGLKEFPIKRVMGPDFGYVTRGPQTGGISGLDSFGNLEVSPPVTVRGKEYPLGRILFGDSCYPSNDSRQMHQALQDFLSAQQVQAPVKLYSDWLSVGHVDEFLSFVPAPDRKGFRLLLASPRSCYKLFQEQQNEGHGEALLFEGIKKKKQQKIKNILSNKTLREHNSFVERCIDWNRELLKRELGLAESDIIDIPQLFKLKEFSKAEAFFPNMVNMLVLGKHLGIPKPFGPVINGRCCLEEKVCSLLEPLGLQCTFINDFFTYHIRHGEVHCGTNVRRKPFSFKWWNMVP
row,Structure (SMILES),IC50 [nM]
1,"COc1cc(C(=O)N2C[C@H]3CC[C@@H]2[C@@H]3N)cc2nc(-c3cc4cccc(-c5ccc(O)c(Cl)c5)c4n3CC3CC3)n(C)c12 [Example 92, 4-(2-{5-[(1R,4R,7R)-7-amino-2-azabicyclo[2.2.1]heptane-2-carbonyl]-7-methoxy-1-methyl-1H-1,3-benzodiazol-2-yl}-1-(cyclopropylmethyl)-1H-indol-7-yl)-2-chlorophenol]",58
2,"COc1cc(C(=O)N2C[C@H]3CC[C@@H]2[C@@H]3N)cc2nc(-c3cc4cccc(-c5ccc(O)cc5Cl)c4n3CC3CC3)n(C)c12 [Example 93, 4-(2-{5-[(1R,4R,7R)-7-amino-2-azabicyclo[2.2.1]heptane-2-carbonyl]-7-methoxy-1-methyl-1H-1,3-benzodiazol-2-yl}-1-(cyclopropylmethyl)-1H-indol-7-yl)-3-chlorophenol]",53
3,"COc1cc(C(=O)N2C[C@H]3CC[C@@H]2[C@@H]3N)cc2nc(-c3cc4cccc(-c5cc(F)c(O)cc5F)c4n3CC3CC3)n(C)c12 [Example 94, 4-(2-{5-[(1R,4R,7R)-7-amino-2-azabicyclo[2.2.1]heptane-2-carbonyl]-7-methoxy-1-methyl-1H-1,3-benzodiazol-2-yl}-1-(cyclopropylmethyl)-1H-indol-7-yl)-2,5-difluorophenol]",45
4,"COc1cc(C(=O)N2C[C@H]3CC[C@@H]2[C@@H]3N)cc2nc(-c3cc4cccc(-c5ccc6[nH]c(=O)cc(C)c6c5)c4n3CC3CC3)n(C)c12 [Example 95, 6-(2-{5-[(1R,4R,7R)-7-amino-2-azabicyclo[2.2.1]heptane-2-carbonyl]-7-methoxy-1-methyl-1H-1,3-benzodiazol-2-yl}-1-(cyclopropylmethyl)-1H-indol-7-yl)-4-methyl-1,2-dihydroquinolin-2-one]",107
5,"COc1cc(C(=O)N2C[C@H]3CC[C@@H]2[C@@H]3N)cc2nc(-c3cc4cccc(-c5cccc6c5CNC6=O)c4n3CC3CC3)n(C)c12 [Example 96, 4-(2-{5-[(1R,4R,7R)-7-amino-2-azabicyclo[2.2.1]heptane-2-carbonyl]-7-methoxy-1-methyl-1H-1,3-benzodiazol-2-yl}-1-(cyclopropylmethyl)-1H-indol-7-yl)-2,3-dihydro-1H-isoindol-1-one]",144
6,"COc1cc(C(=O)N2C[C@H]3CC[C@@H]2[C@@H]3N)cc2nc(-c3cc4cccc(-c5ccc6c(c5)CC(=O)N6)c4n3CC3CC3)n(C)c12 [Example 97, 2′-{5-[(1R,4R,7R)-7-amino-2-azabicyclo[2.2.1]heptane-2-carbonyl]-7-methoxy-1-methyl-1H-1,3-benzodiazol-2-yl}-1′-(cyclopropylmethyl)-2,3-dihydro-1H,1′H-[5,7′-biindole]-2-one]",23
7,"COc1cc(C(=O)N2C[C@H]3CC[C@@H]2[C@@H]3N)cc2nc(-c3cc4cccc(-c5ccc6c(c5)C(=O)NC6)c4n3CC3CC3)n(C)c12 [Example 98, 6-(2-{5-[(1R,4R,7R)-7-amino-2-azabicyclo[2.2.1]heptane-2-carbonyl]-7-methoxy-1-methyl-1H-1,3-benzodiazol-2-yl}-1-(cyclopropylmethyl)-1H-indol-7-yl)-2,3-dihydro-1H-isoindol-1-one]",35
8,"COc1cc(C(=O)N2C[C@H]3CC[C@@H]2[C@@H]3N)cc2nc(-c3cc4cccc(-c5ccc6c(c5)CCC(=O)N6)c4n3CC3CC3)n(C)c12 [Example 99, 6-(2-{5-[(1R,4R,7R)-7-amino-2-azabicyclo[2.2.1]heptane-2-carbonyl]-7-methoxy-1-methyl-1H-1,3-benzodiazol-2-yl}-1-(cyclopropylmethyl)-1H-indol-7-yl)-1,2,3,4-tetrahydroquinolin-2-one]",38
9,"COc1cc(C(=O)N2C[C@H]3CC[C@@H]2[C@@H]3N)cc2nc(-c3cc4cccc(-c5ccc6[nH]c(=O)ccc6c5)c4n3CC3CC3)n(C)c12 [Example 100, 6-(2-{5-[(1R,4R,7R)-7-amino-2-azabicyclo[2.2.1]heptane-2-carbonyl]-7-methoxy-1-methyl-1H-1,3-benzodiazol-2-yl}-1-(cyclopropylmethyl)-1H-indol-7-yl)-1,2-dihydroquinolin-2-one]",58
10,"COC(=O)c1cc(=O)[nH]c2ccc(-c3cccc4cc(-c5nc6cc(C(=O)N7C[C@H]8CC[C@@H]7[C@@H]8N)cc(OC)c6n5C)n(CC5CC5)c34)cc12 [Example 101, methyl 6-(2-{5-[(1R,4R,7R)-7-amino-2-azabicyclo[2.2.1]heptane-2-carbonyl]-7-methoxy-1-methyl-1H-1,3-benzodiazol-2-yl}-1-(cyclopropylmethyl)-1H-indol-7-yl)-2-oxo-1,2-dihydroquinoline-4-carboxylate]",47
11,"COc1cc(C(=O)N2C[C@H]3CC[C@@H]2[C@@H]3N)cc2nc(-c3cc4cccc(-c5ccc6c(=O)[nH]ccc6c5)c4n3CC3CC3)n(C)c12 [Example 102, 6-(2-{5-[(1R,4R,7R)-7-amino-2-azabicyclo[2.2.1]heptane-2-carbonyl]-7-methoxy-1-methyl-1H-1,3-benzodiazol-2-yl}-1-(cyclopropylmethyl)-1H-indol-7-yl)-1,2-dihydroisoquinolin-1-one]",131
12,"COc1cc(C(=O)N2C[C@H]3CC[C@@H]2[C@@H]3N)cc2nc(-c3cc4cccc(-c5ccc6c(c5)CNC6=O)c4n3CC3CC3)n(C)c12 [Example 103, 5-(2-{5-[(1R,4R,7R)-7-amino-2-azabicyclo[2.2.1]heptane-2-carbonyl]-7-methoxy-1-methyl-1H-1,3-benzodiazol-2-yl}-1-(cyclopropylmethyl)-1H-indol-7-yl)-2,3-dihydro-1H-isoindol-1-one]",25
13,"COc1cc(C(=O)N2C[C@H]3CC[C@@H]2[C@@H]3N)cc2nc(-c3cc4cccc(-c5ccc(C(N)=O)c(Cl)c5)c4n3CC3CC3)n(C)c12 [Example 104, 4-(2-{5-[(1R,4R,7R)-7-amino-2-azabicyclo[2.2.1]heptane-2-carbonyl]-7-methoxy-1-methyl-1H-1,3-benzodiazol-2-yl}-1-(cyclopropylmethyl)-1H-indol-7-yl)-2-chlorobenzamide]",93
14,"COC(=O)Nc1ccc(-c2cccc3cc(-c4nc5cc(C(=O)N6C[C@H]7CC[C@@H]6[C@@H]7N)cc(OC)c5n4C)n(CC4CC4)c23)cn1 [Example 105, methyl N-[5-(2-{5-[(1R,4R,7R)-7-amino-2-azabicyclo[2.2.1]heptane-2-carbonyl]-7-methoxy-1-methyl-1H-1,3-benzodiazol-2-yl}-1-(cyclopropylmethyl)-1H-indol-7-yl)pyridin-2-yl]carbamate]",99
15,"COc1cc(C(=O)N2C[C@H]3CC[C@@H]2[C@@H]3N)cc2nc(-c3cc4cccc(-c5ccc(NC(C)=O)nc5)c4n3CC3CC3)n(C)c12 [Example 106, N-[5-(2-{5-[(1R,4R,7R)-7-amino-2-azabicyclo[2.2.1]heptane-2-carbonyl]-7-methoxy-1-methyl-1H-1,3-benzodiazol-2-yl}-1-(cyclopropylmethyl)-1H-indol-7-yl)pyridin-2-yl]acetamide]",61

# Same assay, conditions: human PAD4, rapid-fire mass spectrum (RFMS) assay; 5 nM hPAD4, 250 μM BAEE; read-out: hPAD4 RFMS IC50
row,Structure (SMILES),IC50 [nM]
1,"CCOP(=O)(OCC)c1cccc2cc(-c3nc4cc(C(=O)N5C[C@H]6CC[C@@H]5[C@@H]6N)cc(OC)c4n3C)n(CC3CC3)c12 [Example 107, diethyl (2-{5-[(1R,4R,7R)-7-amino-2-azabicyclo[2.2.1]heptane-2-carbonyl]-7-methoxy-1-methyl-1H-1,3-benzodiazol-2-yl}-1-(cyclopropylmethyl)-1H-indol-7-yl)phosphonate]",86
2,"COc1cc(C(=O)N2C[C@H]3CC[C@@H]2[C@@H]3N)cc2nc(-c3cc4cccc(-n5cc([C@H]6CC[C@H](N)CC6)nn5)c4n3CC3CC3)n(C)c12 [Example 109, (1R,4R,7R)-2-{2-[1-(cyclopropylmethyl)-7-{4-[(1r,4r)-4-aminocyclohexyl]-1H-1,2,3-triazol-1-yl}-1H-indol-2-yl]-7-methoxy-1-methyl-1H-1,3-benzodiazole-5-carbonyl}-2-azabicyclo[2.2.1]heptan-7-amine]",175
3,"COc1cc(C(=O)N2C[C@H]3CC[C@@H]2[C@@H]3N)cc2nc(-c3cc4cccc(-n5cc(C6CNC6)nn5)c4n3CC3CC3)n(C)c12 [Example 110, (1R,4R,7R)-2-(2-{7-[4-(azetidin-3-yl)-1H-1,2,3-triazol-1-yl]-1-(cyclopropylmethyl)-1H-indol-2-yl}-7-methoxy-1-methyl-1H-1,3-benzodiazole-5-carbonyl)-2-azabicyclo[2.2.1]heptan-7-amine]",137
4,"COc1cc(C(=O)N2C[C@H]3CC[C@@H]2[C@@H]3N)cc2nc(-c3cc4cccc(-c5ccc(O)c(CO)c5)c4n3CC3CC3)n(C)c12 [Example 119, ((1R,4R,7R)-7-amino-2-azabicyclo[2.2.1]heptan-2-yl)(2-(1-(cyclopropylmethyl)-7-(4-hydroxy-3-(hydroxymethyl)phenyl)-1H-indol-2-yl)-7-methoxy-1-methyl-1H-benzo[d]imidazol-5-yl)methanone]",20
5,"COc1cc(C(=O)N2C[C@H]3CC[C@@H]2[C@@H]3N)cc2nc(-c3cc4cccc(-c5ccc(O)c(C(N)=O)c5)c4n3CC3CC3)n(C)c12 [Example 120, 5-(2-(5-((1R,4R,7R)-7-amino-2-azabicyclo[2.2.1]heptane-2-carbonyl)-7-methoxy-1-methyl-1H-benzo[d]imidazol-2-yl)-1-(cyclopropylmethyl)-1H-indol-7-yl)-2-hydroxybenzamide]",65
6,"COc1cc(C(=O)N2C[C@H]3CC[C@@H]2[C@@H]3N)cc2nc(-c3cc4cccc(-c5ccc(O)c(C(=O)O)c5)c4n3CC3CC3)n(C)c12 [Example 121, 5-(2-(5-((1R,4R,7R)-7-amino-2-azabicyclo[2.2.1]heptane-2-carbonyl)-7-methoxy-1-methyl-1H-benzo[d]imidazol-2-yl)-1-(cyclopropylmethyl)-1H-indol-7-yl)-2-hydroxybenzoic Acid]",753
